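All cell lines were grown in 96-well plates and treated with compound for 48 hours. GI50 marks 50% less growth.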 Active and inactive are the calls of the source. Rule as the data show it: active = GI50 up to about 1.1 µM and inactive = higher.
Legend:
Experiment in all cases: DTP human tumour cell line panel, 48 h
CAKI-1 = system: CAKI-1
NCI-H23 = system: NCI-H23
SNB-19 = system: SNB-19
IGROV-1 = system: IGROV-1
UO-31 = system: UO-31
Malme-3M = system: Malme-3M
786-0 = system: 786-0
NCI-H226 = system: NCI-H226
COLO 205 = system: COLO 205
MOLT-4 = system: MOLT-4
HCT-116 = system: HCT-116
SK-MEL-28 = system: SK-MEL-28
SF-295 = system: SF-295
OVCAR-4 = system: OVCAR-4
A498 = system: A498
Hs-578T = system: Hs-578T
MCF7 = system: MCF7
NCI/ADR-RES = system: NCI/ADR-RES

Measured: GI50

CN(C)Cc1[nH]c2ccccc2c1C(=O)c1ccccc1
inactive: CAKI-1 > 100 µM | NCI-H23 > 100 µM | SNB-19 > 100 µM | IGROV-1 > 100 µM | UO-31 31.6 µM | Malme-3M > 100 µM | 786-0 > 100 µM | NCI-H226 > 100 µM | COLO 205 > 100 µM | MOLT-4 > 100 µM | HCT-116 > 100 µM | SK-MEL-28 > 100 µM | SF-295 > 100 µM | OVCAR-4 > 100 µM

CC1=NN(C(=O)Cc2ccccc2)C(=O)/C1=C\c1cccc(O)c1
inactive: CAKI-1 > 100 µM | NCI-H23 > 100 µM | SNB-19 > 100 µM | UO-31 > 100 µM | Malme-3M > 100 µM | 786-0 > 100 µM | NCI-H226 > 100 µM | COLO 205 > 100 µM | MOLT-4 > 100 µM | HCT-116 > 100 µM | SK-MEL-28 > 100 µM | SF-295 > 100 µM | OVCAR-4 > 100 µM

Cc1cc(Cl)ccc1N1C(=O)C(=O)C(c2nc3ccccc3s2)C(=O)C1=O
inactive: CAKI-1 > 100 µM | NCI-H23 > 100 µM | SNB-19 > 100 µM | IGROV-1 > 100 µM | UO-31 > 100 µM | Malme-3M > 100 µM | 786-0 > 100 µM | NCI-H226 > 100 µM | COLO 205 > 100 µM | MOLT-4 > 100 µM | HCT-116 > 100 µM | SK-MEL-28 > 100 µM | A498 > 100 µM | SF-295 > 100 µM | OVCAR-4 > 100 µM

COc1ccc(/C=C2\C(=O)N(C(=O)c3ccc(NC(C)=O)cc3)N=C2C)cc1
inactive: CAKI-1 > 100 µM | NCI-H23 > 100 µM | SNB-19 > 100 µM | UO-31 > 100 µM | Malme-3M > 100 µM | 786-0 > 100 µM | NCI-H226 > 100 µM | COLO 205 > 100 µM | MOLT-4 > 100 µM | HCT-116 > 100 µM | SK-MEL-28 > 100 µM | SF-295 > 100 µM | OVCAR-4 > 100 µM

CC(=O)OC(/C=C/c1ccccc1)=C(OC(C)C)/C1=C(\c2ccccc2)SCCCSC1=O
inactive: CAKI-1 > 100 µM | NCI-H23 > 100 µM | SNB-19 > 100 µM | UO-31 > 100 µM | Malme-3M > 100 µM | Hs-578T > 100 µM | 786-0 > 100 µM | MCF7 36 µM | NCI-H226 > 100 µM | COLO 205 > 100 µM | MOLT-4 > 100 µM | NCI/ADR-RES > 100 µM | HCT-116 > 100 µM | SK-MEL-28 > 100 µM | A498 > 100 µM | SF-295 56.8 µM | OVCAR-4 83.4 µM

Cn1c(=O)c(C(=O)NC(=O)OCc2ccccc2)cn(CCSCCOC(=O)NCCCCCCNC(=O)OCCSCCn2cc(C(=O)NC(=O)OCc3ccccc3)c(=O)n(C)c2=O)c1=O
inactive: NCI-H23 > 100 µM | SNB-19 41.2 µM | IGROV-1 > 100 µM | UO-31 74.6 µM | Malme-3M > 100 µM | 786-0 83.9 µM | NCI-H226 > 100 µM | COLO 205 > 100 µM | MOLT-4 > 100 µM | HCT-116 > 100 µM | SK-MEL-28 > 100 µM | A498 > 100 µM | OVCAR-4 > 100 µM

Cn1nc(-c2ccccc2)c2c(/C=C/c3ccc(Cl)cc3)onc2c1=O
inactive: CAKI-1 > 10 µM | NCI-H23 > 100 µM | SNB-19 41.5 µM | IGROV-1 31.4 µM | UO-31 16.3 µM | 786-0 7.6 µM | COLO 205 30.8 µM | MOLT-4 > 100 µM | HCT-116 11.1 µM | SK-MEL-28 51.3 µM | SF-295 27.4 µM

CSc1nc(NC2OC(COC(C)=O)C(OC(C)=O)C(OC(C)=O)C2OC(C)=O)c2c(OC(C)=O)c(C)c(=O)oc2n1 (stereo not given)
inactive: CAKI-1 > 100 µM | NCI-H23 > 100 µM | SNB-19 > 100 µM | IGROV-1 > 100 µM | UO-31 > 100 µM | Malme-3M > 100 µM | 786-0 > 100 µM | NCI-H226 > 100 µM | COLO 205 > 100 µM | MOLT-4 > 100 µM | HCT-116 > 100 µM | A498 > 100 µM | SF-295 > 100 µM | OVCAR-4 > 100 µM

CC1(Br)C(=O)NC(=O)N([C@H]2C[C@H](O)[C@@H](CO)O2)C1N=[N+]=[N-] (stereo not given in full)
inactive: CAKI-1 > 100 µM | NCI-H23 > 100 µM | SNB-19 > 100 µM | IGROV-1 > 100 µM | UO-31 > 100 µM | Malme-3M > 100 µM | 786-0 > 100 µM | NCI-H226 > 100 µM | COLO 205 > 100 µM | MOLT-4 > 100 µM | HCT-116 > 100 µM | SK-MEL-28 > 100 µM | A498 > 100 µM | SF-295 > 100 µM | OVCAR-4 > 100 µM

C/C(=N\NC(=O)CC(=O)N(C(=O)c1ccc(Cl)cc1)c1ccc(C)cc1)c1ccccc1O
inactive: CAKI-1 64 µM | NCI-H23 > 100 µM | SNB-19 59.4 µM | IGROV-1 > 100 µM | UO-31 4.82 µM | Malme-3M > 100 µM | 786-0 13.4 µM | NCI-H226 77.6 µM | COLO 205 16.9 µM | MOLT-4 5.79 µM | HCT-116 62.2 µM | SK-MEL-28 61.8 µM | A498 73.6 µM | SF-295 7.33 µM | OVCAR-4 1.67 µM

NC1=NN(c2ccccc2)C(=O)C1C(=O)C(=O)NC1C2CC3CC(C2)CC1C3 (stereo not given)
inactive: NCI-H23 > 100 µM | SNB-19 > 100 µM | IGROV-1 > 100 µM | UO-31 > 100 µM | Malme-3M > 100 µM | 786-0 > 100 µM | NCI-H226 > 100 µM | COLO 205 > 100 µM | MOLT-4 > 100 µM | HCT-116 > 100 µM | SK-MEL-28 > 100 µM | SF-295 > 100 µM | OVCAR-4 > 100 µM

O=C(NO)c1ccc([N+](=O)[O-])cc1
inactive: CAKI-1 61 µM | NCI-H23 36.6 µM | SNB-19 46.2 µM | IGROV-1 49.9 µM | UO-31 24.8 µM | Malme-3M 26.9 µM | 786-0 > 100 µM | NCI-H226 39.5 µM | COLO 205 31.1 µM | MOLT-4 25.8 µM | SK-MEL-28 23.4 µM | A498 21.9 µM | SF-295 42.1 µM

O=[PH](O)c1cccnc1
inactive: CAKI-1 > 100 µM | NCI-H23 > 100 µM | SNB-19 > 100 µM | IGROV-1 > 100 µM | UO-31 > 100 µM | Malme-3M > 100 µM | 786-0 > 100 µM | NCI-H226 > 100 µM | COLO 205 > 100 µM | MOLT-4 > 100 µM | HCT-116 > 100 µM | SK-MEL-28 > 100 µM | A498 > 100 µM | SF-295 > 100 µM | OVCAR-4 > 100 µM

COC(=O)C12OCC34C(CC5C(C)C6=CC(=O)OC6=CC5(C)C3C(O)C1O)OC(=O)C(OC(C)=O)C24 (stereo not given)
inactive: CAKI-1 9.91 µM | NCI-H23 15.1 µM | SNB-19 33.2 µM | IGROV-1 27.8 µM | UO-31 24.4 µM | Malme-3M 13 µM | 786-0 14.5 µM | NCI-H226 24.8 µM | COLO 205 8.07 µM | MOLT-4 14.8 µM | HCT-116 13.7 µM | SK-MEL-28 15.5 µM | A498 21.2 µM | SF-295 23 µM | OVCAR-4 18.1 µM

Cc1ccc(N2C(=O)C(Cl)=C(Cl)C2=O)cc1
inactive: CAKI-1 17.1 µM | NCI-H23 20.7 µM | SNB-19 > 100 µM | IGROV-1 20.8 µM | UO-31 31.7 µM | Malme-3M 18.7 µM | 786-0 17.3 µM | NCI-H226 > 100 µM | COLO 205 16.1 µM | MOLT-4 16.4 µM | HCT-116 17 µM | SK-MEL-28 16.5 µM | A498 > 100 µM | SF-295 71.8 µM | OVCAR-4 19.2 µM

CN1CC[C@]2(C)c3c(O)cccc3CC3CCCC1C32C (stereo not given in full)
inactive: CAKI-1 > 100 µM | NCI-H23 > 100 µM | SNB-19 > 100 µM | IGROV-1 > 100 µM | UO-31 > 100 µM | Malme-3M > 100 µM | 786-0 > 100 µM | NCI-H226 > 100 µM | COLO 205 > 100 µM | MOLT-4 > 100 µM | HCT-116 > 100 µM | SK-MEL-28 > 100 µM | A498 > 100 µM | SF-295 > 100 µM

O=c1c(-c2ccccc2)c2oc(c1-c1ccccc1)CS(=O)(=O)CCC2
inactive: CAKI-1 28.8 µM | NCI-H23 17.6 µM | SNB-19 > 100 µM | IGROV-1 45 µM | Malme-3M 49.4 µM | 786-0 19.8 µM | NCI-H226 18.5 µM | COLO 205 21 µM | MOLT-4 24.2 µM | HCT-116 12.7 µM | SK-MEL-28 17.5 µM | SF-295 > 100 µM

COc1cc(/C=C(\NC(=O)c2ccccc2)c2nc3ccc4c(c3[nH]2)C(=O)c2ccccc2C4=O)cc(OC)c1OC
inactive: CAKI-1 10.1 µM | NCI-H23 55.6 µM | SNB-19 99.1 µM | IGROV-1 10.7 µM | UO-31 2.36 µM | Malme-3M > 100 µM | 786-0 28.2 µM | NCI-H226 > 100 µM | COLO 205 > 100 µM | MOLT-4 2.52 µM | HCT-116 23.1 µM | SK-MEL-28 77.6 µM | A498 13.1 µM | SF-295 55.7 µM | OVCAR-4 69.3 µM

COc1cc(C(C)O)c[n+](CCc2c[nH]c3ccccc23)c1 (stereo not given)
inactive: CAKI-1 > 100 µM | NCI-H23 > 100 µM | SNB-19 > 100 µM | IGROV-1 > 100 µM | UO-31 > 100 µM | Malme-3M > 100 µM | 786-0 > 100 µM | COLO 205 72.8 µM | MOLT-4 > 100 µM | HCT-116 > 100 µM | A498 > 100 µM | SF-295 > 100 µM | OVCAR-4 > 100 µM

Reference: ChEMBL document CHEMBL1201862, “PubChem BioAssay data set” (2004)
